This is an account of results in patent US6632794B1, “Insulin-like growth factor agonist molecules” (Genentech, Inc., priority 1997, dated 2003).

Like-named read-outs stand apart in the source and are kept apart here. Starred links: 1 amine or outer side, 2 acyl side, 3 side chain; linkers in the order of their positions; H or OH if unused. Positions of bridges follow the written chain, without caps; N, C: chain ends. Residues, ends and D or L forms follow the SMILES beside them. No end group written: not given here. Suc = O=C(CCC(=O)[*:2])[*:1]

For one assay, the target named is IGFBP-3 (Homo sapiens, UniProt P17936). The assay is described as follows: BIAcore competition assay, IGFBP-3 binding to immobilized IGF-I. The settings on record: for IGF-I Inhibition IC50 (mut)/IC50 (wt): bp3-01-ox variants by BIAcore, wt = bp3-01-ox. The procedure: A. BIAcore™ Competition Assay (for IGFBP-3 Binders)
IGF-I was immobilized on a dextran chip for inhibition assays using a BIAcore™ 2000 surface-plasmon-resonance device (BIAcore, Inc., Piscataway, N.J.) to measure free binding protein. […] Serial dilutions of peptide were mixed with a constant concentration (40 nM) of IGFBP-3. After incubation for >1 hour at room temperature, an aliquot of 20 μL was injected at a flow rate of 20 μL/min over the IGF-I chip. Following the injection, a response reading was taken to measure the relative amount of IGFBP-3 bound to the IGF-I.

A further assay has as its target T1, IGFBP-1 (Homo sapiens, UniProt P08833).
T1 construct: biotin (chemical label, EZ-LINK NHS-SS-Biotin)
T1 sequence (P08833 26-259): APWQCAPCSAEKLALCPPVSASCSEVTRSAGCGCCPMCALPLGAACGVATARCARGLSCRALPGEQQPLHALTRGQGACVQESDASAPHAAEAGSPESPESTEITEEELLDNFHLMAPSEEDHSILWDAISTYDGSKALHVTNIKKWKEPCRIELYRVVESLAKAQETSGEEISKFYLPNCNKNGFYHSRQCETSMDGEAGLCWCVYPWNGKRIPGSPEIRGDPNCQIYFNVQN
The assay is described as follows: Biotin-BP plate (ELISA) assay, biotinylated IGFBP-1 binding to IGF-I. As to conditions: C-terminal bp1-01 variants by ELISA. The procedure:
1. Biotin-BP Assay (for IGFBP-1 Binders)
For inhibition of IGFBP-1 binding, IGFBP-1 (as well as IGFBP-3 as a control) were biotinylated as described above. MAXISORP™plates were coated and blocked as described above, using 2 μg/mL IGF-I. In a separate plate, serial dilutions of peptide were premixed with a constant concentration (20 nM) of biotinylated IGFBP-1. After 20 min. at room temperature, the mixture was added to the IGF-I plate. The peptide/IGFBP mix was then removed and the plate was washed ten times with PBS buffer containing 0.05% TWEEN-20™ surfactant. Bound biotin-IGFBP-1 was then detected using streptavidin-conjugated horse radish peroxidase, and a chromogenic substrate.
A second series of peptides made use of non-natural amino acids to probe whether other structural features such as an added methyl group at the alpha carbon, or an isomer (D-alanine) could affect peptide binding to IGFBP-1.
Substitutions at the N-terminus or C-terminus yielded affinity improvements. […] All of these peptides had similar or improved apparent affinity for IGFBP-1 as compared with bp1-01 and bp1-02 and are thus expected to increase the availability of IGF-I in an in vitro cell culture assay.

Another assay concerns hypophysectomized rats. As to the kind of experiment: Long-term administration to hypophysectomized rats. The class given is in vivo, rat. As to conditions: one week. An excerpt: Young female SD rats were hypophysectomized at Taconic Laboratories and delivered several days later. The rats were then weighed frequently and those whose weight increased or decreased by more than 7 grams between 2 and 3 weeks following hypophysectomy were excluded from the study. Twenty-five rats were grouped randomly into five groups based on their body weight, and then randomly assigned to cages, with four rats per cage. The animals were allowed ad libitum access to food and water and housed in a room controlled for temperature and lighting.
1) Excipient pump, excipient injections;
2) (Leu^24,Ala^31)hIGF-I (10 μg/day, by SC minipump), excipient injections;
3) (Leu^24,Ala^31)hIGF-I (50 μg/day, by SC minipump), excipient injections;
4) Recombinant human GH (NUTROPIN™ brand from Genentech, Inc., 20 μg/day, by SC injection, two injections each of 10 μg/day), excipient minipump; or
5) (Leu^24,Ala^31)hIGF-I (50 μg/day, by SC minipump) plus recombinant human GH (20 μg/day, by SC injection, two injections each of 10 μg/day).
The rats were dosed for one week.
The mutant (Leu^24,Ala^31)hIGF-I was administered by osmotic minipumps (ALZET 2001™, Alza, Palo Alto, Calif.), which were placed in a subcutaneous tunnel in the dorsal neck region of the rats while they were anesthetized with KETAMINE™/XYLAZINE™ anesthesia. The pumps were filled with solutions so that the calculated daily dose was 50 μg or 10 μg, assuming that 24 μl of solution was delivered each day for one week.
Recombinant human GH was administered for one week by twice daily SC injections of 10 μg in 100 μl volume.
Body weights were measured daily in the morning. At the end of the week of dosing the animals were anesthetized via CO2 and exsanguinated via cardiac puncture. The remaining blood was allowed to clot and serum was separated and stored for further analysis.
(§1) Spleen, thymus, heart, liver, kidney, and perirenal fat were removed and weighed. The tibia was removed and fixed in neutral buffered formalin for histological measurement of epiphyseal plate width.
Serum chemistries were measured on an automated Chem I analyzer. Serum insulin concentration was measured using an RIA Kit supplied by Linco, Inc. To measure the IGF-I concentrations the serum was extracted using acid ethanol and the supernatant diluted to neutrality and assayed for IGF-I by RIA.
Tibia were sectioned longitudinally, stained with Toluene Blue, and mounted on microscope slides. The tibial epiphyseal plate width was measured using an ocular micrometer attached to a microscope.
Data were analyzed statistically by analysis of variance using one factor and two factor ANOVA.

Another assay concerns dwarf rats. As to the kind of experiment: Long-term administration to GH-deficient dwarf (dw/dw) rats. The class given is in vivo, rat.
Description: Young female dwarf rats (11-12 wk of age, 115-140 g) were bred by homozygous mating (Charles Rivers Laboratories) and delivered to the Genentech Animal House where they were housed five per cage on polystyrene chips and fed a standard animal chow and water ad libitum, and kept in a room of constant humidity and with controlled temperature and lighting. The animals were weighed, and based on uniformity of body weight, 37 of the animals were selected and randomized into treatment groups and cages to give six treatment groups of equal initial body weights (approximately 120 g).
The study consisted of six groups of rats with six or seven rats per group.
The mutant (Leu^24,Ala^31)hIGF-I and native sequence recombinant human IGF-I were administered by osmotic minipumps (ALZET 2001™, Alza, Palo Alto, Calif.) which were placed in a subcutaneous tunnel in the dorsal neck region while the rats were anesthetized with KETAMINE/XYLAZINE™ anesthesia. The pumps were filled with solutions so that the calculated daily dose was 120 μg per rat per day (1 mg/kg/day), assuming that the pump delivered as per the manufacturer's description (24 μl of solution per day).
Recombinant human GH (50 μg/day) was administered for eight days by twice daily sc injection, with each injection being of 25 μg in a volume of 100 μl.
Body weights were measured daily in the morning. After 8 days the animals were anesthetized using CO2 and exsanguinated by cardiac puncture. The remaining blood was allowed to clot and serum was separated and stored for further analysis.
as §1
Serum chemistries were measured using a TECHNICON CHEM I PLUS™ analyzer. Serum insulin concentration was measured using an RIA kit supplied by Linco, Inc. To measure the IGF-I concentrations the serum was extracted using acid ethanol and the supernatant diluted to neutrality and assayed for IGF-I by RIA. The concentration of rat IGF-I in serum extract was measured by RIA using a kit from Diagnostic Systems Laboratories, Inc. Human IGF-I concentration was measured by RIA at Genentech, Inc.
Tibia were sectioned longitudinally, stained with TOLULENE BLUE™ stain and mounted on microscope slides. The tibial epiphyseal plate width was measured using an ocular micrometer attached to a microscope.
Data were analyzed statistically by analysis of variance using one-factor ANOVA followed by Duncan's Range Test.

Where [1] appears, read: bp3-01-ox variants by BIAcore competition assay, read-out: IGF-I Inhibition IC50.
Where [2] appears, read: serum at sacrifice, 8 days, Means ± SEM.

IGFBP-3, sequence (P17936 28-291): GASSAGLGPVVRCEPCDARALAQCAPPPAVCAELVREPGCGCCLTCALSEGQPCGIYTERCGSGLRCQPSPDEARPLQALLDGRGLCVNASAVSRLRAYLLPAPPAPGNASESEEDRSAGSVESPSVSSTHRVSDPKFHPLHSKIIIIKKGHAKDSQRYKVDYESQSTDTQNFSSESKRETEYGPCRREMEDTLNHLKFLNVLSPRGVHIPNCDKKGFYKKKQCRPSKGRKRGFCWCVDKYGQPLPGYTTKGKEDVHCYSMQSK

As for `CC(C)C[C@@H]1NC(=O)[C@H](Cc2ccc(O)cc2)NC(=O)[C@H](Cc2c[nH]c3ccccc23)NC(=O)[C@H](CCC(=O)O)NC(=O)[C@H](C)NC(=O)[C@H](C(C)C)NC(=O)[C@@H]2CCCN2C(=O)[C@H](Cc2c[nH]c3ccccc23)NC(=O)[C@@H](NC(=O)[C@@H](NC(=O)[C@H](CCC(=O)O)NC(=O)[C@H](CCC(=O)O)NC(=O)[C@@H](N)CO)C(C)C)CSSC[C@@H](C(=O)N[C@@H](CC(N)=O)C(N)=O)NC1=O` [bp3-39] (H-SEEVCWPVAEWYLCN-NH2; disulfide 5-14 (inferred); N-terminus assumed), the IC50 at IGFBP-3 (setting [1]) is 0.66 µM. Moreover, at IGFBP-3, the “IGF-I Inhibition IC50 (mut)/IC50 (wt)” value worked out at 0.33.

Turning to `CC(=O)N[C@@H](CO)C(=O)N[C@@H](CCC(=O)O)C(=O)N[C@@H](CCC(=O)O)C(=O)N[C@H](C(=O)N[C@H]1CSSC[C@@H](C(=O)N[C@@H](CC(N)=O)C(N)=O)NC(=O)[C@H](CC(C)C)NC(=O)[C@H](Cc2ccc(O)cc2)NC(=O)[C@H](Cc2c[nH]c3ccccc23)NC(=O)[C@H](CCC(=O)O)NC(=O)[C@H](C)NC(=O)[C@H](C(C)C)NC(=O)[C@@H]2CCCN2C(=O)[C@H](Cc2c[nH]c3ccccc23)NC1=O)C(C)C` [bp3-40] (Ac-SEEVCWPVAEWYLCN-NH2; disulfide 5-14 (inferred)), at IGFBP-3 (setting [1]), the IC50 came to 0.66 µM. For the same compound, the “IGF-I Inhibition IC50 (mut)/IC50 (wt)” value at IGFBP-3 was found to be 0.33.

For `CC(C)C[C@@H]1NC(=O)[C@H](Cc2ccc(O)cc2)NC(=O)[C@H](Cc2c[nH]c3ccccc23)NC(=O)[C@H](CCC(=O)O)NC(=O)[C@H](C)NC(=O)[C@H](C(C)C)NC(=O)[C@@H]2CCCN2C(=O)[C@H](Cc2c[nH]c3ccccc23)NC(=O)[C@@H](NC(=O)[C@@H](NC(=O)[C@H](CCC(=O)O)NC(=O)[C@@H]2CCCN2C(=O)CN)[C@@H](C)O)CSSC[C@@H](C(=O)N[C@@H](CC(N)=O)C(=O)O)NC1=O` [bp3-41] (H-GPETCWPVAEWYLCN-OH; disulfide 5-14; N-terminus and C-terminus assumed), on IGFBP-3 (setting [1]), the 50% inhibitory concentration (IC50) stood at 4 µM. Moreover, the “IGF-I Inhibition IC50 (mut)/IC50 (wt)” value on IGFBP-3 was found to be 2.0.

Turning to `CC[C@H](C)[C@H](NC(=O)CCC(=O)O)C(=O)N1CCC[C@H]1C(=O)N[C@H](C(=O)N[C@@H](CO)C(=O)N1CCC[C@H]1C(=O)N[C@@H](CC(=O)O)C(=O)N[C@@H](Cc1c[nH]c2ccccc12)C(=O)N[C@@H](Cc1ccccc1)C(=O)N[C@H](C(=O)N[C@@H](CS)C(=O)N[C@@H](CCC(N)=O)C(N)=O)C(C)C)C(C)C` [bp3-108] (Suc-IPVSPDWFVCQ-NH2), at IGFBP-3 (BIAcore competition, read-out: IC50, inhibition of IGFBP-3 binding to IGF-I), the half-inhibitory concentration (IC50) was determined as 20 µM.

CRAGPLQWLCE [bp1-04]: in the assay with IGFBP-1, the “IGF-I Inhibition IC50 (mut)/IC50 (wt)” value is listed as more than 1000.

For CRAGPLQWLCEK [bp1-17], in the assay with IGFBP-1, the “IGF-I Inhibition IC50 (mut)/IC50 (wt)” value is given as more than 1000.

For WPVAEWYLCN [bp3-24], at IGFBP-3 (setting [1]), the IC50 was more than 1000 µM.

Turning to “hGH: Recombinant human GH (NUTROPIN brand from Genentech, Inc.)”, the body weight gain entry in the assay with hypophysectomized rats (IGF agonist 50 μg/day SC minipump, hGH 20 μg/day SC, or both) is given as “significant increase in body weight”. In addition, the absolute thymus weight entry with hypophysectomized rats (IGF agonist 50 μg/day, hGH 20 μg/day, or both) is given as “almost equal”. Further, the “absolute and relative heart weight” value in the assay with hypophysectomized rats (IGF agonist 10 and 50 μg, hGH 20 μg/day, or combination) was “slightly increased absolute heart weight and caused a fall in relative heart weight”. Besides, the absolute spleen weight result with hypophysectomized rats (IGF mutant 10 and 50 μg/day, hGH 20 μg/day, or hGH plus 50 μg/day) is given as “greater than that to the IGF agonist”. Besides, the epiphyseal plate width result with hypophysectomized rats (rhGH 20 μg/day) was “around 400 μm”. Also, the epiphyseal plate widths result with dwarf rats (8 days) is “significantly (p<0.05) increased”. The same compound showed a body weight gain with dwarf rats (Day 5, hGH 50 μg/d, IGF mutant 120 μg/day) of 12.4 ± 0.9 g. In the assay with dwarf rats (setting [2]), the AST is 123 ± 13 U/l, the BUN turned out to be 15.6 ± 0.7 mg/dL, the CK was found to be 184 ± 29 u/l and the Creatinine stood at 0.33 ± 0.02 mg/dL. In the assay with dwarf rats (setting [2]), this compound registered a Glucose of 192 ± 10 mg/dL and an Insulin of 1.48 ± 0.29 ng/mL.
